Assay results reported in PMC8099175, “SARS-CoV-2 M^pro inhibitors with antiviral activity in a transgenic mouse model” (Science (New York, N.y.), 2021).
Where two headings read alike, the source gives them in different places.

Columns and labels:
[1] = PK experiments in Sprague-Dawley rats; conditions: rat
Excerpt: To identify which of the six compounds is suitable for in vivo antiviral studies, we conducted PK experiments in Sprague-Dawley rats.

SARS-CoV-2 = test: hACE2 transgenic mouse model of SARS-CoV-2 infection; assay type: in vivo, hACE2 transgenic mice; conditions: for viral RNA loads in the lung tissues: 2 × 10^6 TCID50, 50 mg/kg, 3 and 5 dpi; for viral loads in the lung tissues: 5 dpi; for lung histopathology / neutrophils and macrophages in the lungs vs control mice: 5 × 10^6 TCID50, 3 dpi; for expression levels of IFN-β and CXCL10 in the lungs: 5 × 10^6 TCID50, lung tissue homogenate; for lung viral loads and lung lesions: oral or intraperitoneal treatment, summary statement; for abnormal behaviors or body weight loss: pilot study, 2 × 10^6 TCID50, MI-09 50 mg/kg p.o. bid or i.p. qd, MI-30 50 mg/kg i.p. qd, 6-day period
[2] = system: SARS-CoV-2 in HPAEpiC cells; test: RT-qPCR virus replication assay in HPAEpiC cells; assay type: cell-based; conditions: for EC90: Severe acute respiratory syndrome coronavirus 2
[3] = repeated dose toxicity study in rats; assay type: in vivo; conditions: i.v. 6 and 18 mg kg^–1 day^–1, i.p. 100 and 200 mg kg^–1 day^–1, or p.o. 100 and 200 mg/kg twice daily, 7 consecutive days
[4] = system: SARS-CoV-2–infected Vero E6 cells; test: cell protection assay (CCK8); assay type: cell-based; conditions: for EC50: Vero E6 cells, MOI 0.1, 3 dpi, CCK8
[5] = acute toxicity experiment in rats; assay type: in vivo; conditions: i.v. 40 mg/kg, i.p. 250 mg/kg, or p.o. 500 mg/kg
[6] = Sprague-Dawley, in vivo, ip, 20 mg/kg
[7] = Sprague-Dawley, in vivo, iv, 10 mg/kg
[8] = Sprague-Dawley, in vivo, po, 20 mg/kg
[9] = 2 × 10^6 TCID50, 50 mg/kg (MI-09 p.o. bid or i.p. qd; MI-30 i.p. qd), 1 dpi
[10] = 5 × 10^6 TCID50, 100 mg/kg i.p. or p.o., 1 dpi
[11] = 5 × 10^6 TCID50, 100 mg/kg i.p. or p.o., 3 dpi
[12] = 5 × 10^6 TCID50, 100 mg/kg i.p. or p.o.
[13] = Severe acute respiratory syndrome coronavirus 2, read-out: EC50, SARS-CoV-2 virus replication (RT-qPCR)
[14] = Severe acute respiratory syndrome coronavirus 2, Vero C1008

Structure (SMILES) | AUC [1, 6] [ng·h/mL] | AUC [1, 7] [ng·h/mL] | AUC [1, 8] [ng·h/mL] | bioavailability [1, 8] [%] | mean viral RNA loads in the lung tissues vs control (SARS-CoV-2; [9]) | viral RNA loads in the lung tissues (SARS-CoV-2) | mean viral RNA loads in the lung tissues vs control (SARS-CoV-2; [10]) | mean viral RNA loads in the lung tissues vs control (SARS-CoV-2; [11]) | viral loads in the lung tissues (SARS-CoV-2; [12]) | lung histopathology (SARS-CoV-2) | neutrophils and macrophages in the lungs vs control mice (SARS-CoV-2) | expression levels of IFN-β and CXCL10 in the lungs (SARS-CoV-2; 3 dpi) | lung viral loads and lung lesions (SARS-CoV-2) | abnormal behaviors or body weight loss (SARS-CoV-2) | EC90 [2] [nM] | EC50 [2, 13] [nM] | toxicity, repeated dose [3] | EC90 [4, 14] [nM] | EC50 [4, 14] [nM] | mortality, acute toxicity [5] | also measured
O=C[C@H](C[C@@H]1CCNC1=O)NC(=O)[C@@H]1[C@H]2CCC[C@H]2CN1C(=O)COc1ccc(Cl)cc1Cl [MI-30] | 14900 | 9770 | 2840 | 14.6 | significantly (P < 0.05, Student’s t test) lower | almost undetectable | slightly lower | significantly lower | undetectable | slight alveolar septal thickening and mild inflammatory cell infiltration | fewer | reduced | significantly reduced | no abnormal behaviors or body weight loss were observed | 58.8 | 1.1 | did not result in noticeable toxicity | 2120 | 540 | no rats died | half-life [1, 6]: 3.88 h; clearance rate (CL) ([1]; i.p. administration): 17.10 ml min^–1 kg^–1
CC1(C)[C@@H]2[C@@H](C(=O)N[C@H](C=O)C[C@@H]3CCNC3=O)N(C(=O)COc3ccc(OC(F)(F)F)cc3)C[C@@H]21 [MI-09] | 11600 | 7430 | 1660 | 11.2 | significantly (P < 0.05, Student’s t test) lower | almost undetectable | slightly lower | significantly lower | undetectable | slight alveolar septal thickening and mild inflammatory cell infiltration | fewer | reduced | significantly reduced | no abnormal behaviors or body weight loss were observed | 47.9 | 1.2 | did not result in noticeable toxicity | 3620 | 860 | no rats died | 
CC(C)C[C@H](NC(=O)OCc1ccccc1)C(=O)N[C@@H](CC1CCNC1=O)C(O)S(=O)(=O)O (some centres unmarked) [GC376, reference compound] |  |  |  |  |  |  |  |  |  |  |  |  |  |  |  |  |  |  |  |  | EC50 ([2]; HPAEpiC cells, MOI 0.01, 2 dpi, viral RNA copies in supernatant, read-out: EC50, SARS-CoV-2 virus replication (RT-qPCR)): 153 nM; EC50 [4]: 1460 nM
